# According to patent publication US10676430B2, “Non-alpha substituted peroxy acids and uses thereof” (Stepan Company, priority 2016, dated 2020):
# Columns and labels:
# [1] = Peracid stability by standard titration method; assay type: physicochemical
# Description: […] The H2O2 used is commercially available from Arkema under the tradename Perxoal 50EG and includes a small amount of stabilizer. The reaction proceeded until equilibrium was reached, in accordance with the reaction scheme recited above. The starting carboxylic acids were acetic acid, 3-hydroxy propanoic acid, 3-chloro-propanoic acid, 2-hydroxy-acetic acid (glycolic acid), 2-hydroxy-propanoic acid (lactic acid) and 2-oxo-propanoic acid. The 3-hydroxy propanoic acid and 3-chloro-propanoic acid generated non alpha-substituted peracids that are examples of the present technology. The other starting carboxylic acids generated peracids that are not within Formula 1 or Formula 2 and are comparative peracid examples.
# Each of the resulting peracids were evaluated for odor. In addition, the resulting peracids were evaluated for stability using a standard titration method known to those skilled in the art.
# [2] = system: Spores of Clostridium difficile (ATCC 43598); assay: Quantitative Disk Carrier Test Method (QCT-2), EPA MB-31-03, sporicidal efficacy; assay type: cell-based; conditions: water hardness 400 ppm
# Experimental: Different formulations containing 3-HPPA at different concentrations were prepared and evaluated for sporicidal efficacy against Cd. The 3-HPPA formulations were also compared to the sporicidal efficacy of different formulations containing peracetic acid (PAA). The test procedure for evaluating sporicidal efficacy was in accordance with the EPA test method in place in 2015: Quantitative Disk Carrier Test Method (QCT-2) Modified for Testing Antimicrobial Products Against Spores of Clostridium difficile (ATCC 43598) on Inanimate, Hard, Non-porous Surfaces (MB-31-03). This method mandates the presence of a high level of organic soil.
# [3] = system: Staphylococcus aureus (Sa, ATCC 6538); assay: Method A: AOAC Use Dilution test for Disinfectants (Method 955.15); assay type: cell-based; conditions: 1 minute
# Experimental: (§1) In this Example, 3-HPPA was evaluated for biocidal efficacy against Sa, Pa, and Ec using three different test methods. PAA was also evaluated for biocidal efficacy for comparison. The test methods were performed using 400 ppm of hard water as diluent, in the presence of 5% organic matter.
# (§2) Method A: AOAC Use Dilution test for Disinfectants (Official Methods of Analysis. Methods 955.15—Staphylococcus aureus. Method 964.02—Pseudomonas aeruginosa. Posted September 2013). Killing efficacy is a qualitative result, reported as number of tubes showing microbial growth and total number carriers tested.
# [4] = system: Pseudomonas aeruginosa (Pa, ATCC 15442); assay: Method A: AOAC Use Dilution test for Disinfectants (Method 964.02); assay type: cell-based; conditions: 1 minute
# Experimental: as §1, §2
# [5] = system: Pseudomonas aeruginosa (Pa, ATCC 15442); assay: Method A+: modified quantitative AOAC Use Dilution test; assay type: cell-based; conditions: 750 ppm, 1 minute, 400 ppm hard water, 5% organic matter
# Experimental: as §1
# (§3) Method A^+: modified quantitative AOAC Use Dilution test for Disinfectants (Official Methods of Analysis. Methods 955.15—Staphylococcus aureus. Method 964.02—Pseudomonas aeruginosa. Posted September 2013). The number of surviving organisms on each carrier was quantitatively determined after the indicated contact time. No growth observed on the solid recovery medium means no survivors present on the carriers after exposure to the antimicrobial composition. A kill rate of 99.9999% is equivalent to a 6 log kill.
# [6] = system: Staphylococcus aureus (Sa, ATCC 6538); assay: as above; assay type: cell-based; conditions: 750 ppm, 1 minute, 400 ppm hard water, 5% organic matter
# Experimental: as §1, §3
# [7] = reaction mixture 20.00% organic acid, 7.50% H2O2, 1.00% H2SO4, DI water
# [8] = 750 ppm, 400 ppm hard water, 5% organic matter
structure (smiles),measurement,setting,value
"CC(=O)OO [PAA, peracetic acid]",Peracid at day 13,"[1]; 0% H2SO4 (no acid catalyst), 17.00-20.00% organic acid, 7.8-8.5% H2O2",1.44%
same,Peracid loss/day,"[1]; 1.00% H2SO4, between day 6 and day 13",0.131%
same,Peracid at day 6,[1]; [7],2.290%
same,Peracid at day 13,[1]; [7],2.270%
same,Log10 reduction,"[2]; peracid active 1844 ppm, contact time 2 minute",4.76
same,Log10 reduction,"[2]; peracid active 2500 ppm, contact time 4 minute",4.37
same,Log10 reduction,"[2]; peracid active 2500 ppm, contact time 4 minute, listed as PAA alone",<4.37
same,Log10 reduction,"[2]; peracid active 5000 ppm, contact time 4 minute",6.39
same,"Efficacy outcome, EPA UDT/MB-05-13 test method",[3]; 750 ppm active,efficacious
same,Efficacy (Method A): tubes showing microbial growth / total carriers tested,[3]; [8],0/20
same,"Efficacy outcome, EPA UDT/MB-05-13 test method",[4]; 750 ppm active,efficacious
same,Efficacy (Method A): tubes showing microbial growth / total carriers tested,[4]; [8],0/20
same,"Efficacy (Method A+), kill rate",[5],>99.9999%
same,"Efficacy (Method A+), kill rate",[6],>99.9999%
